Nine compounds from ChEMBL document CHEMBL1201862, “PubChem BioAssay data set” (2004) can be followed below.

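Cells were grown in 96-well plates and exposed to each compound for 48 hours at five concentrations; endpoints were interpolated linearly between bracketing concentrations, or set to the highest concentration if not reached. Here, GI50 denotes the concentration required for 50% inhibition of growth.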 Active and inactive are the calls of the source. Rule as the data show it: active = GI50 up to about 1.1 µM and inactive = higher.

Common to all, as to experiment: growth of human tumour cells (NCI), 48 h
Assay [1] has as its system HCT-116.
Assay [2] relates to LOX IMVI.
For assay [3], the system named is M14.
In assay [4] the test system is A549.
For assay [5], the system named is SR.
Assay [6] relates to OVCAR-5.
The test system of assay [7] is EKVX.
For assay [8], the system named is SF-295.
The test system of assay [9] is OVCAR-4.
For assay [10], the system named is HCT-15.
The test system of assay [11] is CCRF-CEM.
In assay [12] the test system is OVCAR-3.
The test system of assay [13] is SK-MEL-5.
For assay [14], the system named is A498.
Assay [15] concerns HT-29.
Assay [16] relates to RPMI-8226.
Assay [17] relates to SF-268.
Assay [18] concerns MCF7.

Turning to `CC1(C)CCc2cc3c(cc2O1)OCC1c2cc4c(cc2OC31)OCO4` (stereo unspecified), the GI50 in assay [1], in assay [2], in [3], in assay [4], in assay [5] and in assay [6] was > 100 µM (inactive) throughout. For the same compound, the GI50 in assay [7] is > 100 µM (inactive); in [8], > 100 µM (inactive); in [9], > 100 µM (inactive); in assay [10], 63 µM; in assay [11] it was > 100 µM (inactive); in [12] it was > 100 µM (inactive). Besides, the GI50 was 39.9 µM (inactive) in [13]; > 100 µM (inactive) in assay [14]; > 100 µM (inactive) in [15]; > 100 µM (inactive) in assay [16]; > 100 µM (inactive) in assay [17].
On to `CC#Cc1c(C#CC)c(OC)c2c(c1OC)C(=O)c1ccccc1C2=O`, for which the GI50 in assay [1] is 15.9 µM (inactive); in assay [2], > 100 µM (inactive); in assay [3], 33.6 µM (inactive); in [4], 88.3 µM (inactive); in assay [5], 46.6 µM (inactive); in [6], > 100 µM (inactive). Also, the GI50 was 45.7 µM (inactive) in assay [7]; 13.3 µM (inactive) in assay [8]; > 100 µM (inactive) in assay [9]; 61.7 µM in assay [10]; > 100 µM (inactive) in assay [11]; > 100 µM (inactive) in [12]. Further, the GI50 in assay [13] was 49.1 µM (inactive); in assay [14], 33.1 µM (inactive); in assay [15] it was > 100 µM (inactive); in assay [16], 39.2 µM (inactive); in assay [17], 25.7 µM (inactive).
Regarding `C=CC(=O)NC(=N)NC#N`, the GI50 in assay [1] was 189 µM (inactive); in assay [2], > 74.6 µM (inactive); in [3] it was 151 µM (inactive); in assay [4], 195 µM (inactive); in assay [5], 150 µM (inactive); in assay [6], 177 µM (inactive). Moreover, the GI50 in [7] was > 100 µM (inactive); in assay [8], 313 µM (inactive); in [9], 168 µM (inactive); in assay [10] it was 120 µM; in [11], 22.6 µM (inactive); in [12], 169 µM (inactive). In addition, the GI50 in [13] was 165 µM (inactive); in assay [18], > 68.7 µM (inactive); in assay [14] it was 152 µM (inactive); in assay [15], 189 µM (inactive); in assay [16], 22 µM (inactive); in assay [17], 121 µM (inactive).
Take `CCc1cccc(CC)c1NC(=O)CC1SC(N)=NC1=O` (stereo unspecified): the GI50 in assay [1] was > 100 µM (inactive); in assay [2] it was > 100 µM (inactive); in assay [3] it was > 100 µM (inactive); in assay [4] it was > 100 µM (inactive); in assay [5] it was 97.5 µM (inactive); in assay [6], > 100 µM (inactive). The GI50 was > 100 µM (inactive) in assay [7]; > 100 µM (inactive) in assay [8]; > 100 µM (inactive) in assay [9]; above 100 µM in assay [10]; > 100 µM (inactive) in assay [11]; > 100 µM (inactive) in [12]. In addition, the GI50 in [13], in assay [14], in assay [15], in assay [16] and in [17] was > 100 µM (inactive) throughout.
With `COc1ccc(-c2c3c(n(C4OC(COC(C)=O)C(OC(C)=O)C(OC(C)=O)C4OC(C)=O)c(=S)c2C#N)CCCC3)cc1` (stereo unspecified), the GI50 was 79.4 µM (inactive) in assay [1]; > 100 µM (inactive) in [2]; > 100 µM (inactive) in assay [3]; 64.1 µM (inactive) in [4]; > 100 µM (inactive) in assay [5]; > 100 µM (inactive) in assay [6]. The GI50 is 53 µM (inactive) in [7]; > 100 µM (inactive) in [8]; 25.5 µM (inactive) in assay [9]; 41.5 µM in assay [10]; 25.5 µM (inactive) in assay [11]; 19.6 µM (inactive) in assay [12]. Further, the GI50 is 34.4 µM (inactive) in assay [13]; > 100 µM (inactive) in [18]; 15.2 µM (inactive) in [14]; > 100 µM (inactive) in assay [15]; 34.2 µM (inactive) in assay [17].
In the case of `Cc1ccc(/C=c2\cc3oc(=O)c4cccc(c4-3)c2=O)cc1`, the GI50 was > 100 µM (inactive) in [1]; 61.4 µM (inactive) in assay [2]; > 100 µM (inactive) in [3]; 34.1 µM (inactive) in assay [5]; > 100 µM (inactive) in assay [6]; > 100 µM (inactive) in assay [7]. The GI50 was > 100 µM (inactive) in [8]; > 100 µM (inactive) in [9]; above 100 µM in assay [10]; 19.6 µM (inactive) in assay [11]; 72.1 µM (inactive) in assay [12]; > 100 µM (inactive) in assay [18]. In addition, the GI50 was > 100 µM (inactive) in assay [14], > 100 µM (inactive) in assay [15], 31.2 µM (inactive) in assay [16] and 59.3 µM (inactive) in [17].
With `CCCCCCCCCCCC(=O)OCCOCCOCCOCCOCCOC(=O)CCCCCCCCCCC`, the GI50 in assay [1], in assay [2], in assay [3], in [4], in [5] and in [6] was > 100 µM (inactive) in each case. Besides, the GI50 was > 100 µM (inactive) in assay [7]; > 100 µM (inactive) in [8]; > 100 µM (inactive) in [9]; above 100 µM in assay [10]; > 100 µM (inactive) in assay [11]; > 100 µM (inactive) in [12]. The GI50 in [13], in assay [14], in assay [15], in assay [16] and in assay [17] was > 100 µM (inactive) each time.
For `O=C(O)CSc1nnc(COc2ccc(Cl)cc2)n1-c1ccccc1`, the GI50 in [1], in [2], in assay [3], in assay [4], in assay [6] and in assay [7] was > 100 µM (inactive) each time. For the same compound, the GI50 was > 100 µM (inactive) in [8]; > 100 µM (inactive) in assay [9]; above 100 µM in assay [10]; > 100 µM (inactive) in assay [11]; > 100 µM (inactive) in assay [12]; > 100 µM (inactive) in assay [18]. Besides, the GI50 in [14], in assay [15] and in assay [17] was > 100 µM (inactive) each time.
Regarding `O=C(Nc1cc(C(F)(F)F)ccc1Cl)C(=O)C(C(=O)c1ccc2ccccc2c1)C1OC(=O)c2ccccc21` (stereo unspecified), the GI50 in [1] is 4.8 µM (inactive); in assay [2], 6.32 µM (inactive); in [3] it was 12.2 µM (inactive); in [4], 9.57 µM (inactive); in assay [5] it was 2.62 µM (inactive); in assay [6] it was 8.95 µM (inactive). The GI50 in assay [7] is 13.5 µM (inactive); in assay [8] it was 4.81 µM (inactive); in assay [9], 18 µM (inactive); in assay [10] it was 6.32 µM; in [11], 4.11 µM (inactive); in assay [12] it was 13.9 µM (inactive). Also, the GI50 in assay [13] was 7.69 µM (inactive); in [14], 6.55 µM (inactive); in assay [15], 13.8 µM (inactive); in assay [16], 4.25 µM (inactive); in [17], 4.13 µM (inactive).
